Reference: patent publication US10457709B2, “Antimicrobial peptides, their variants and uses” (priority 2015, dated 2019)
Ends that are not written are not given here.

B1: En-MAP1: protein of 549 amino acids from an endophyte of Empetrum nigrum, GenBank accession number KC466596 (protein, listed as Empetrum nigrum)
chain: MRLVAHPVPDAPLYALMIKACSMGIPQPNDNLWKPRNPLLAKEEKTSKRGRTAPDTERALDLFREMTLRYNIRPTAEVYTAIIAACVKRDDMYDKGFGLFKKMVELERNRMSSEGHDSTSFAPTRATYNALLRGCARNKDLLRARWILAEMLRTAQAKWQEFMEKSKKGEEGVQEWELLEVEEMRPDTNTMAFLFYTYASHTTSSKAVPETEGKKELEGKAEERASEVTSVSPVSEPPEPMDESKLVYSLPTSSQAILREVTSLLDRIKSDQGQQSNLLSSVQINSKLLNSYIAVLSAHCRSSQVVERISEVVVGTKENPKSLFEETGTSVNGYTCFTVIDACGMMEHSPDTYHLACEMWQRWLSLVENATFHRENPLKAKEIGLDSRTISDCWSAMIRLHAKYNQVDEAMKLVHEFARLYPPASLFNSLTFEPSSTSSSSLSPRKGVQEISPLFSSTSLTHSIRGRDISRIQNTMSQDPTLQFRAVQILHLRLVELETRPKDLAYLSWLLKSYEHQLQPKRPKSLQGDLFTSRQAAYNRIVQQRTSSR

How the values were obtained:
[1] = tested on: Staphylococcus aureus (ATCC 25923); experiment: microbe, parasite or virus in culture; type: cell-based; details: ATCC 25923
Description: (§1) Minimum inhibition concentrations (MICs) were determined against Escherichia coli (ATCC 25922), Staphylococcus aureus (ATCC 25923), Klebsiella pneumoniae (ATCC 10031) and Pseudomonas aeruginosa (ATCC 27853). Also clinical strains of E. coli, K. pneumoniae, E. cloacae, P. aeruginosa, Serratia marcescens, Proteus mirabilis, S. pneumoniae, Acinetobacter baumannii, A. johnsonii and S. aureus were used for MICs assays. Additionally, clinical strains of yeast including Candida albicans, C. glabrata, C. parapsilosis and C. quillermondiae were used. The susceptibility of these microorganisms to Chain peptides were determined using micro broth dilution assay. Colonies of the respective microorganism from Muller Hinton (MH) agar plates incubated overnight were suspended in MH broth media and final concentration of microorganism was adjusted to 5.0×10^5 cfu/ml. An aliquot of 10 μl of each Chain peptide, or gentamicin, tetracycline as reference antibiotics were added in differing concentrations along with 90 μl of bacterial suspension to 96 well polypropylene plates and incubated at 37° C. for 20 to 24 hours. Concentrations of Chain peptides and reference antibiotics ranged from 0.125 to 128 μg/ml and the MICs were recorded as the lowest concentration with no visual growth of bacteria. Similarly, antifungal MICs were tested in Potato dextrose broth.

[2] = tested on: Pseudomonas aeruginosa (ATCC 27853); experiment: microbe, parasite or virus in culture; type: cell-based; details: ATCC 27853
Description: as §1

[3] = tested on: Escherichia coli (ATCC 25922); experiment: microbe, parasite or virus in culture; type: cell-based; details: ATCC 25922
Description: as §1

[4] = tested on: Klebsiella pneumoniae (ATCC 10031); experiment: microbe, parasite or virus in culture; type: cell-based; details: ATCC 10031
Description: as §1

E. coli = details: ATCC 25922
Description: as §1

S. aureus [5] = details: ATCC 25923
Description: as §1

S. aureus [6] = experiment: Antibacterial activity analysis of En-MAP1 protein; type: cell-based, Staphylococcus aureus
Description: Both folded and unfolded proteins were tested for antibacterial activity against S. aureus by pipetting 10 μg of protein on the S. aureus culture on an LB plate. The activity was also tested in folded and unfolded protein digested with trypsin in 0.01% acetic acid at concentrations of 30 and 60 μg/ml.
The gene En-MAP1 was then cloned into the expression plasmid pET23(b) to analyze whether the antibacterial activity was due to the protein itself. The resulting construct pET23(b)-FosS1A contained the En-MAP1 gene in-frame. When transformed into E. coli expression strain BL21 (DE3) pLyseS and BL21 (DE3) pRARE, a protein of approximately 63 kDa (predicted mass 63.3 kDa) was produced in the cell extracts of induced, but not in the uninduced cultures. The resulting protein includes the amino acid sequence […]- prior to the first amino acid of the protein sequence. The protein was expressed in both strains as inclusion bodies and they were purified and folded in a His-Trap column, resulting in about ˜1 mg of pure folded protein.

Row | Molecule | Minimum inhibitory concentration, Staphylococcus aureus (ATCC 25923) [1] [µg/mL] | Minimum inhibitory concentration, Pseudomonas aeruginosa (ATCC 27853) [2] [µg/mL] | Minimum inhibitory concentration, Escherichia coli (ATCC 25922) [3] [µg/mL] | Minimum inhibitory concentration, Klebsiella pneumoniae (ATCC 10031) [4] [µg/mL] | Minimal inhibitory concentration (MIC), E. coli (E. coli) [µM] | Minimal inhibitory concentration (MIC), S. aureus (S. aureus [5]) [µM] | Antibacterial activity against S. aureus (S. aureus [6]; expressed, folded protein) | Antibacterial activity against S. aureus after trypsin digestion (S. aureus [6]; folded full protein digested with trypsin, data not shown) | Antibacterial activity against S. aureus after trypsin digestion (S. aureus [6]; trypsin digest of the unfolded protein)
1 | NRIVQQRTSSR [Chain200] | >128 | >128 | >128 | >128 | 95 | 95 |  |  | 
2 | B1 |  |  |  |  |  |  | no activity was observed | antibacterial activity was observed | No activity was detected
